According to PubChem BioAssay (NCI):
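Assay format: 96-well plates, 48-hour exposure. Here, GI50 denotes the concentration required for 50% inhibition of growth. TGI denotes the concentration required for complete inhibition of growth.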

What was measured:
Assay in all cases: NCI-60 cell line screen, 48 h
TK-10 renal = test system: TK-10 renal
HS 578T breast = test system: HS 578T breast
ACHN renal = test system: ACHN renal
SR leukemia = test system: SR leukemia
SN12C renal = test system: SN12C renal
SNB-19 CNS = test system: SNB-19 CNS
SW-620 colon = test system: SW-620 colon
LOX IMVI melanoma = test system: LOX IMVI melanoma
OVCAR-3 ovarian = test system: OVCAR-3 ovarian
SK-OV-3 ovarian = test system: SK-OV-3 ovarian
SK-MEL-5 melanoma = test system: SK-MEL-5 melanoma
PC-3 prostate = test system: PC-3 prostate
U251 CNS = test system: U251 CNS
M14 melanoma = test system: M14 melanoma
DU-145 prostate = test system: DU-145 prostate
CAKI-1 renal = test system: CAKI-1 renal
SF-539 CNS = test system: SF-539 CNS
T-47D breast = test system: T-47D breast
K-562 leukemia = test system: K-562 leukemia
SF-268 CNS = test system: SF-268 CNS
SK-MEL-28 melanoma = test system: SK-MEL-28 melanoma
CCRF-CEM leukemia = test system: CCRF-CEM leukemia
MALME-3M melanoma = test system: MALME-3M melanoma
MDA-MB-435 = test system: MDA-MB-435
NCI-H23 lung = test system: NCI-H23 lung
UO-31 renal = test system: UO-31 renal
OVCAR-4 ovarian = test system: OVCAR-4 ovarian
UACC-62 melanoma = test system: UACC-62 melanoma
786-0 renal = test system: 786-0 renal
HCT-15 colon = test system: HCT-15 colon
MOLT-4 leukemia = test system: MOLT-4 leukemia
SK-MEL-2 melanoma = test system: SK-MEL-2 melanoma
A498 renal = test system: A498 renal
HCT-116 colon = test system: HCT-116 colon
MDA-MB-231 breast = test system: MDA-MB-231 breast
OVCAR-5 ovarian = test system: OVCAR-5 ovarian
A549 NSCLC = test system: A549 NSCLC
NCI-H460 lung = test system: NCI-H460 lung
HCC-2998 colon = test system: HCC-2998 colon
OVCAR-8 ovarian = test system: OVCAR-8 ovarian
RXF 393 renal = test system: RXF 393 renal
SNB-75 CNS = test system: SNB-75 CNS
MCF7 breast = test system: MCF7 breast
KM12 colon = test system: KM12 colon
COLO 205 colon = test system: COLO 205 colon
SF-295 CNS = test system: SF-295 CNS
NCI-H522 lung = test system: NCI-H522 lung
EKVX NSCLC = test system: EKVX NSCLC
HL-60(TB) leukemia = test system: HL-60(TB) leukemia
HT29 colon = test system: HT29 colon
RPMI-8226 leukemia = test system: RPMI-8226 leukemia
NCI/ADR-RES ovarian = test system: NCI/ADR-RES ovarian
NCI-H226 lung = test system: NCI-H226 lung
HOP-92 NSCLC = test system: HOP-92 NSCLC
IGROV1 ovarian = test system: IGROV1 ovarian
BT-549 breast = test system: BT-549 breast
HOP-62 NSCLC = test system: HOP-62 NSCLC

CC/C=C\C/C=C\C[C@H](O)C/C=C1/C(=O)C=C[C@H]1C/C=C\CCC(=O)OC
GI50 (TK-10 renal): > 8.25 µM
TGI (TK-10 renal): > 8.25 µM
GI50 (HS 578T breast): 7.66 µM
TGI (HS 578T breast): > 8.25 µM
GI50 (ACHN renal): 3.06 µM
TGI (ACHN renal): > 8.25 µM
GI50 (SR leukemia): 1610 nM
TGI (SR leukemia): > 8.25 µM
GI50 (SN12C renal): 2620 nM
TGI (SN12C renal): > 8.25 µM
GI50 (SNB-19 CNS): 7.76 µM
TGI (SNB-19 CNS): > 8.25 µM
GI50 (SW-620 colon): 2190 nM
TGI (SW-620 colon): > 8.25 µM
GI50 (LOX IMVI melanoma): 1360 nM
TGI (LOX IMVI melanoma): 2850 nM
GI50 (OVCAR-3 ovarian): 2080 nM
TGI (OVCAR-3 ovarian): 7.71 µM
GI50 (SK-OV-3 ovarian): > 8.25 µM
TGI (SK-OV-3 ovarian): > 8.25 µM
GI50 (SK-MEL-5 melanoma): 1940 nM
TGI (SK-MEL-5 melanoma): 6.21 µM
GI50 (PC-3 prostate): 3.75 µM
TGI (PC-3 prostate): > 8.25 µM
GI50 (U251 CNS): 2660 nM
TGI (U251 CNS): > 8.25 µM
GI50 (M14 melanoma): 6.11 µM
TGI (M14 melanoma): > 8.25 µM
GI50 (DU-145 prostate): 4.95 µM
TGI (DU-145 prostate): > 8.25 µM
GI50 (CAKI-1 renal): 6.01 µM
TGI (CAKI-1 renal): > 8.25 µM
GI50 (SF-539 CNS): 2820 nM
TGI (SF-539 CNS): > 8.25 µM
GI50 (T-47D breast): 2930 nM
TGI (T-47D breast): > 8.25 µM
GI50 (K-562 leukemia): 2260 nM
TGI (K-562 leukemia): > 8.25 µM
GI50 (SF-268 CNS): 3.04 µM
TGI (SF-268 CNS): > 8.25 µM
GI50 (SK-MEL-28 melanoma): 2850 nM
TGI (SK-MEL-28 melanoma): > 8.25 µM
GI50 (CCRF-CEM leukemia): 2310 nM
TGI (CCRF-CEM leukemia): 7.8 µM
GI50 (MALME-3M melanoma): 2200 nM
TGI (MALME-3M melanoma): > 8.25 µM
GI50 (MDA-MB-435): 2350 nM
TGI (MDA-MB-435): > 8.25 µM
GI50 (NCI-H23 lung): 2060 nM
TGI (NCI-H23 lung): 6.67 µM
GI50 (UO-31 renal): 7.58 µM
TGI (UO-31 renal): > 8.25 µM
GI50 (OVCAR-4 ovarian): > 8.25 µM
TGI (OVCAR-4 ovarian): > 8.25 µM
GI50 (UACC-62 melanoma): 1790 nM
TGI (UACC-62 melanoma): 7.16 µM
GI50 (786-0 renal): 3.53 µM
TGI (786-0 renal): > 8.25 µM
GI50 (HCT-15 colon): 1850 nM
TGI (HCT-15 colon): 6.47 µM
GI50 (MOLT-4 leukemia): 2930 nM
TGI (MOLT-4 leukemia): > 8.25 µM
GI50 (SK-MEL-2 melanoma): > 8.25 µM
TGI (SK-MEL-2 melanoma): > 8.25 µM
GI50 (A498 renal): > 8.25 µM
TGI (A498 renal): > 8.25 µM
GI50 (HCT-116 colon): 1550 nM
TGI (HCT-116 colon): 3.15 µM
GI50 (MDA-MB-231 breast): 3.5 µM
TGI (MDA-MB-231 breast): > 8.25 µM
GI50 (OVCAR-5 ovarian): 5 µM
TGI (OVCAR-5 ovarian): > 8.25 µM
GI50 (A549 NSCLC): > 8.25 µM
TGI (A549 NSCLC): > 8.25 µM
GI50 (NCI-H460 lung): > 8.25 µM
TGI (NCI-H460 lung): > 8.25 µM
GI50 (HCC-2998 colon): 1600 nM
TGI (HCC-2998 colon): 3.39 µM
GI50 (OVCAR-8 ovarian): 2510 nM
TGI (OVCAR-8 ovarian): > 8.25 µM
GI50 (RXF 393 renal): 4.99 µM
TGI (RXF 393 renal): > 8.25 µM
GI50 (SNB-75 CNS): > 8.25 µM
TGI (SNB-75 CNS): > 8.25 µM
GI50 (MCF7 breast): 2430 nM
TGI (MCF7 breast): > 8.25 µM
GI50 (KM12 colon): 2200 nM
TGI (KM12 colon): > 8.25 µM
GI50 (COLO 205 colon): 3.87 µM
TGI (COLO 205 colon): > 8.25 µM
GI50 (SF-295 CNS): > 8.25 µM
TGI (SF-295 CNS): > 8.25 µM
GI50 (NCI-H522 lung): 1390 nM
TGI (NCI-H522 lung): 3.42 µM
GI50 (EKVX NSCLC): > 8.25 µM
TGI (EKVX NSCLC): > 8.25 µM
GI50 (HL-60(TB) leukemia): 2490 nM
TGI (HL-60(TB) leukemia): > 8.25 µM
GI50 (HT29 colon): 2680 nM
TGI (HT29 colon): 6.79 µM
GI50 (RPMI-8226 leukemia): 1590 nM
TGI (RPMI-8226 leukemia): 5.01 µM
GI50 (NCI/ADR-RES ovarian): 3.74 µM
TGI (NCI/ADR-RES ovarian): > 8.25 µM
GI50 (NCI-H226 lung): 2320 nM
TGI (NCI-H226 lung): > 8.25 µM
GI50 (HOP-92 NSCLC): > 8.25 µM
TGI (HOP-92 NSCLC): > 8.25 µM
GI50 (IGROV1 ovarian): > 8.25 µM
TGI (IGROV1 ovarian): > 8.25 µM
GI50 (BT-549 breast): 2780 nM
TGI (BT-549 breast): > 8.25 µM
GI50 (HOP-62 NSCLC): 3.17 µM
TGI (HOP-62 NSCLC): > 8.25 µM
